In patent US20070128217A1 (priority 2003, published 2007):

Key:
[1] = system: antibodies in sera from SARS patients (sera 1a, 1b, 2, 6, 37, 62, London, SARS-yellow, SARS-green); type: binding, human; set-up: Binding of serum 6 to linear peptides of protein X1 of SARS-CoV Urbani / Binding of serum 37 to linear peptides of protein X1 of SARS-CoV Urbani / Binding of serum 6 to looped/cyclic peptide (PEPSCAN-ELISA) / Binding of serum 37 to looped/cyclic peptide (PEPSCAN-ELISA) / Binding of serum 37 to looped/cyclic peptides of protein X1 of SARS-CoV Urbani / Binding of serum 6 to linear peptides of protein X2 / Binding of serum 37 to linear peptides of protein X2 / Binding of serum 37 to looped/cyclic peptides of protein X2 of SARS-CoV Urbani / Binding of serum 6 to linear peptides of protein M of SARS-CoV Urbani / Binding of serum 37 to linear peptides of protein M of SARS-CoV Urbani / Binding of serum 6 to looped/cyclic peptides of protein M of SARS-CoV Urbani / Binding of serum 37 to looped/cyclic peptides of protein M of SARS-CoV Urbani / Binding of serum 6 to linear peptides of protein X3 of SARS-CoV Urbani / Binding of serum 37 to linear peptides of protein X3 of SARS-CoV Urbani / Binding of serum 37 to looped/cyclic peptides of protein X3 of SARS-CoV Urbani / Binding of serum 6 to linear peptides of protein X4 of SARS-CoV Urbani / Binding of serum 37 to linear peptides of protein X4 of SARS-CoV Urbani / Binding of serum 37 to looped/cyclic peptides of protein X4 of SARS-CoV Urbani / Binding of serum 6 to linear peptides of protein X5 of SARS-CoV Urbani / Binding of serum 37 to linear peptides of protein X5 of SARS-CoV Urbani / Binding of serum 37 to looped/cyclic peptides of protein X5 of SARS-CoV Urbani / Binding of serum 6 to linear peptides of protein N of SARS-CoV Urbani / Binding of serum 37 to linear peptides of protein N of SARS-CoV Urbani / Binding of serum 6 to linear peptide (PEPSCAN-ELISA) / Binding of serum 1a to looped/cyclic peptides of protein N of SARS-CoV Urbani / Binding of serum 1b to looped/cyclic peptides of protein N of SARS-CoV Urbani / Binding of serum 2 to looped/cyclic peptides of protein N of SARS-CoV Urbani / Binding of serum 6 to looped/cyclic peptides of protein N of SARS-CoV Urbani / Binding of serum 37 to looped/cyclic peptides of protein N of SARS-CoV Urbani / Binding of serum 62 to looped/cyclic peptides of protein N of SARS-CoV Urbani / Binding of serum London to looped/cyclic peptides of protein N of SARS-CoV Urbani / Binding of serum SARS-green to looped/cyclic peptides of protein N of SARS-CoV Urbani: unit not given here
[2] = system: control sera (pooled serum of ten healthy LUMC hospital workers; commercial negative donor pooled serum from the Dutch bloodbank); type: binding, human; set-up: Binding of Control serum LUMC to linear peptides / Binding of Control serum Blood-bank to linear peptides / Binding of Control serum LUMC to looped peptides / Binding of Control Serum Blood-Bank to Looped peptides / Binding of Control serum LUMC to linear peptides of the protein M of SARS-CoV Urbani / Binding of Control serum Blood-bank to linear peptides of the protein M of SARS-CoV Urbani / Binding of Control serum LUMC to looped peptides of the protein M of SARS-CoV Urbani / Binding of Control Serum Blood-Bank to Looped peptides of the protein M of SARS-CoV Urbani: unit not given here
[3] = system: rabbit serum obtained by immunizing a rabbit with the SARS-CoV strain Frankfurt 1; type: binding; set-up: Binding of a rabbit serum to linear peptides / Binding of a rabbit serum to looped peptides / Rabbit serum linear peptides / Rabbit serum looped peptides / Binding of a rabbit serum to linear peptides of protein N of SARS-CoV Urbani (Rabbit serum linear peptides) / Binding of a rabbit serum to looped/cyclic peptides of protein N of SARS-CoV Urbani (Rabbit serum looped peptides): unit not given here

## AQFLYLYALIYFLQC
[1]
  Binding of serum 1a to linear peptides of protein X1 of SARS-CoV Urbani: 0.6
  Binding of serum 1a to looped/cyclic peptide (PEPSCAN-ELISA): 0.5
  Binding of serum 1b to linear peptides of protein X1 of SARS-CoV Urbani: 0.5
  Binding of serum 1b to looped/cyclic peptide (PEPSCAN-ELISA): 0.3
  Binding of serum 2 to linear peptides of protein X1 of SARS-CoV Urbani: 0.5
  Binding of serum 2 to looped/cyclic peptide (PEPSCAN-ELISA): 0.4
  Binding of serum 6 to linear peptides of protein X1 of SARS-CoV Urbani: 0.3
  Binding of serum 6 to looped/cyclic peptide (PEPSCAN-ELISA): 0.2
  Binding of serum 37 to linear peptides of protein X1 of SARS-CoV Urbani: 0.6
  Binding of serum 37 to looped/cyclic peptide (PEPSCAN-ELISA): 0.4
  Binding of serum 62 to linear peptides of protein X1 of SARS-CoV Urbani: 0.4
  Binding of serum 62 to looped/cyclic peptide (PEPSCAN-ELISA): 0.5
  Binding of serum London to linear peptides of protein X1 of SARS-CoV Urbani: 0.2
  Binding of serum London to looped/cyclic peptide (PEPSCAN-ELISA): 0.2
  Binding of serum SARS-green to linear peptides of protein X1 of SARS-CoV Urbani: 0.2
  Binding of serum SARS-green to looped/cyclic peptide (PEPSCAN-ELISA): 0.3
  Binding of serum SARS-yellow to linear peptides of protein X1 of SARS-CoV Urbani: 0.4
  Binding of serum SARS-yellow to looped/cyclic peptide (PEPSCAN-ELISA): 0.3
[2]
  Binding of Control Serum Blood-Bank to Looped peptides: 0.4
  Binding of Control serum Blood-bank to linear peptides: 0.4
  Binding of Control serum LUMC to linear peptides: 0.5
  Binding of Control serum LUMC to looped peptides: 0.5
[3]
  Binding of a rabbit serum to linear peptides: 0.2
  Binding of a rabbit serum to looped peptides: 0.5

## ASFRLFARTRSMWSF
[1]
  Binding of serum 1a to linear peptides of protein M of SARS-CoV Urbani: 0.7
  Binding of serum 1a to looped/cyclic peptides of protein M of SARS-CoV Urbani: 0.6
  Binding of serum 1b to linear peptides of protein M of SARS-CoV Urbani: 0.6
  Binding of serum 1b to looped/cyclic peptides of protein M of SARS-CoV Urbani: 0.5
  Binding of serum 2 to linear peptides of protein M of SARS-CoV Urbani: 0.5
  Binding of serum 2 to looped/cyclic peptides of protein M of SARS-CoV Urbani: 0.5
  Binding of serum 6 to linear peptides of protein M of SARS-CoV Urbani: 0.7
  Binding of serum 6 to looped/cyclic peptides of protein M of SARS-CoV Urbani: 0.9
  Binding of serum 37 to linear peptides of protein M of SARS-CoV Urbani: 0.4
  Binding of serum 37 to looped/cyclic peptides of protein M of SARS-CoV Urbani: 0.5
  Binding of serum 62 to linear peptides of protein M of SARS-CoV Urbani: 0.4
  Binding of serum 62 to looped/cyclic peptides of protein M of SARS-CoV Urbani: 0.5
  Binding of serum London to linear peptides of protein M of SARS-CoV Urbani: 0.3
  Binding of serum London to looped/cyclic peptides of protein M of SARS-CoV Urbani: 0.2
  Binding of serum SARS-green to linear peptides of protein M of SARS-CoV Urbani: 0.4
  Binding of serum SARS-green to looped/cyclic peptides of protein M of SARS-CoV Urbani: 0.2
  Binding of serum SARS-yellow to linear peptides of protein M of SARS-CoV Urbani: 0.2
  Binding of serum SARS-yellow to looped/cyclic peptides of protein M of SARS-CoV Urbani: 0.6
[2]
  Binding of Control Serum Blood-Bank to Looped peptides of the protein M of SARS-CoV Urbani: 0.7
  Binding of Control serum Blood-bank to linear peptides of the protein M of SARS-CoV Urbani: 0.7
  Binding of Control serum LUMC to linear peptides of the protein M of SARS-CoV Urbani: 0.6
  Binding of Control serum LUMC to looped peptides of the protein M of SARS-CoV Urbani: 0.7
[3]
  Rabbit serum linear peptides: 0.3
  Rabbit serum looped peptides: 0.2

## ASLPFGWLVIGVAFL
[1]
  Binding of serum 1a to linear peptides of protein X1 of SARS-CoV Urbani: 0.7
  Binding of serum 1a to looped/cyclic peptide (PEPSCAN-ELISA): 0.5
  Binding of serum 1b to linear peptides of protein X1 of SARS-CoV Urbani: 0.5
  Binding of serum 1b to looped/cyclic peptide (PEPSCAN-ELISA): 0.3
  Binding of serum 2 to linear peptides of protein X1 of SARS-CoV Urbani: 0.6
  Binding of serum 2 to looped/cyclic peptide (PEPSCAN-ELISA): 0.4
  Binding of serum 6 to linear peptides of protein X1 of SARS-CoV Urbani: 0.5
  Binding of serum 6 to looped/cyclic peptide (PEPSCAN-ELISA): 0.2
  Binding of serum 37 to linear peptides of protein X1 of SARS-CoV Urbani: 0.6
  Binding of serum 37 to looped/cyclic peptide (PEPSCAN-ELISA): 0.3
  Binding of serum 62 to linear peptides of protein X1 of SARS-CoV Urbani: 0.6
  Binding of serum 62 to looped/cyclic peptide (PEPSCAN-ELISA): 0.4
  Binding of serum London to linear peptides of protein X1 of SARS-CoV Urbani: 0.3
  Binding of serum London to looped/cyclic peptide (PEPSCAN-ELISA): 0.2
  Binding of serum SARS-green to linear peptides of protein X1 of SARS-CoV Urbani: 0.2
  Binding of serum SARS-green to looped/cyclic peptide (PEPSCAN-ELISA): 0.2
  Binding of serum SARS-yellow to linear peptides of protein X1 of SARS-CoV Urbani: 0.4
  Binding of serum SARS-yellow to looped/cyclic peptide (PEPSCAN-ELISA): 0.3
[2]
  Binding of Control Serum Blood-Bank to Looped peptides: 0.4
  Binding of Control serum Blood-bank to linear peptides: 0.6
  Binding of Control serum LUMC to linear peptides: 0.6
  Binding of Control serum LUMC to looped peptides: 0.6
[3]
  Binding of a rabbit serum to linear peptides: 1.4
  Binding of a rabbit serum to looped peptides: 0.3

## CADGTRHTYQLRARS
[1]
  Binding of serum 1a to linear peptides of protein X4 of SARS-CoV Urbani: 0.6
  Binding of serum 1a to looped/cyclic peptides of protein X4 of SARS-CoV Urbani: 0.7
  Binding of serum 1b to linear peptides of protein X4 of SARS-CoV Urbani: 0.5
  Binding of serum 1b to looped/cyclic peptides of protein X4 of SARS-CoV Urbani: 0.4
  Binding of serum 2 to linear peptides of protein X4 of SARS-CoV Urbani: 0.5
  Binding of serum 2 to looped/cyclic peptides of protein X4 of SARS-CoV Urbani: 0.8
  Binding of serum 6 to linear peptides of protein X4 of SARS-CoV Urbani: 0.6
  Binding of serum 6 to looped/cyclic peptides of protein X4 of SARS-CoV Urbani: 0.6
  Binding of serum 37 to linear peptides of protein X4 of SARS-CoV Urbani: 0.7
  Binding of serum 37 to looped/cyclic peptides of protein X4 of SARS-CoV Urbani: 0.7
  Binding of serum 62 to linear peptides of protein X4 of SARS-CoV Urbani: 0.7
  Binding of serum 62 to looped/cyclic peptides of protein X4 of SARS-CoV Urbani: 0.6
  Binding of serum London to linear peptides of protein X4 of SARS-CoV Urbani: 0.8
  Binding of serum London to looped/cyclic peptides of protein X4 of SARS-CoV Urbani: 0.3
  Binding of serum SARS-green to linear peptides of protein X4 of SARS-CoV Urbani: 0.6
  Binding of serum SARS-green to looped/cyclic peptides of protein X4 of SARS-CoV Urbani: 0.0
  Binding of serum SARS-yellow to linear peptides of protein X4 of SARS-CoV Urbani: 0.7
  Binding of serum SARS-yellow to looped/cyclic peptides of protein X4 of SARS-CoV Urbani: 0.6
[2]
  Binding of Control Serum Blood-Bank to Looped peptides: 0.5
  Binding of Control serum Blood-bank to linear peptides: 0.7
  Binding of Control serum LUMC to linear peptides: 0.5
  Binding of Control serum LUMC to looped peptides: 0.6
[3]
  Recognition of the peptide by the rabbit serum: recognized

## CDIKDLPKEITVATS
[1]
  Binding of serum 1a to linear peptides of protein M of SARS-CoV Urbani: 0.6
  Binding of serum 1a to looped/cyclic peptides of protein M of SARS-CoV Urbani: 0.6
  Binding of serum 1b to linear peptides of protein M of SARS-CoV Urbani: 0.3
  Binding of serum 1b to looped/cyclic peptides of protein M of SARS-CoV Urbani: 0.3
  Binding of serum 2 to linear peptides of protein M of SARS-CoV Urbani: 0.3
  Binding of serum 2 to looped/cyclic peptides of protein M of SARS-CoV Urbani: 0.6
  Binding of serum 6 to linear peptides of protein M of SARS-CoV Urbani: 0.3
  Binding of serum 6 to looped/cyclic peptides of protein M of SARS-CoV Urbani: 0.5
  Binding of serum 37 to linear peptides of protein M of SARS-CoV Urbani: 0.5
  Binding of serum 37 to looped/cyclic peptides of protein M of SARS-CoV Urbani: 0.6
  Binding of serum 62 to linear peptides of protein M of SARS-CoV Urbani: 0.7
  Binding of serum 62 to looped/cyclic peptides of protein M of SARS-CoV Urbani: 0.6
  Binding of serum London to linear peptides of protein M of SARS-CoV Urbani: 0.3
  Binding of serum London to looped/cyclic peptides of protein M of SARS-CoV Urbani: 0.2
  Binding of serum SARS-green to linear peptides of protein M of SARS-CoV Urbani: 0.2
  Binding of serum SARS-green to looped/cyclic peptides of protein M of SARS-CoV Urbani: 0.4
  Binding of serum SARS-yellow to linear peptides of protein M of SARS-CoV Urbani: 0.0
  Binding of serum SARS-yellow to looped/cyclic peptides of protein M of SARS-CoV Urbani: 0.6
[2]
  Binding of Control Serum Blood-Bank to Looped peptides of the protein M of SARS-CoV Urbani: 0.6
  Binding of Control serum Blood-bank to linear peptides of the protein M of SARS-CoV Urbani: 0.4
  Binding of Control serum LUMC to linear peptides of the protein M of SARS-CoV Urbani: 0.2
  Binding of Control serum LUMC to looped peptides of the protein M of SARS-CoV Urbani: 0.7
[3]
  Rabbit serum linear peptides: 0.4
  Rabbit serum looped peptides: 0.6
